{
  "source": "patent US9642859B2",
  "about": "“Use of capsazepine and analogs thereof to treat cancer” (THE BOARD OF REGENTS OF THE UNIVERSITY OF TEXAS SYSTEM, priority 2012, dated 2017)",
  "key": {"[1]": {"system": "SCC4", "assay": "Additional cell proliferation assay, SCC4", "format": "cell-based, human", "conditions": "SCC4, 24 hour treatment", "excerpt": "Observed reductions in cell proliferation in these additional in vitro studies are as follows: SCC4, 40%; HSC3, 50%; SCC25, 80%; Cal27, 15%; MDA231, 56%; and LnCap, 37%."}, "[2]": {"system": "OSCC cell lines", "assay": "ROS assays by flow cytometry (DCF-DA)", "format": "cell-based, human", "conditions": "30 μM capsazepine, 1 h", "method": "FIGS. 1I-1 to 1I-3. Reactive oxygen species (ROS) assays. The level of ROS in OSCC cell lines was examined by flow cytometry using 2,7-dichlorodihydrofluorescein diacetate (DCFH-DA; Sigma). Approximately 3×10^5 cells were plated in 12-well plates. To detect ROS, cells were incubated for 30 min at 37° C. with DCF-DA, washed and then treated for 1 h with 30 μM capsazepine (grey, thick line), 150 μM capsaicin (grey, thin line), 30 μM capsazepine+150 μM capsaicin (black line), or vehicle control (dotted line). The cells were harvested, washed twice, and analyzed by flow cytometry.\nFIGS. 1I-4(a)-(b) to 1I-6(a)-(b). Induction of ROS in OSCC cell lines. (a). ROS induction in OSCC cell lines following 1 h treatment with 30 μM CPZ (black line) compared to vehicle control. (b). ROS induction in OSCC cell lines following 1 h treatment with 30 μM CPZ is reversed by NAC co-treatment (black line) as indicated in the shift in their peaks to the left.\nROS levels in OSCC cell lines were examined by flow cytometry using 2,7-dichlorodihydrofluorescein diacetate (DCF-DA; Sigma-Aldrich, St. Louis, Mo.). Cells (3×10^5) were plated in 12-well plates and incubated for 30 min with DCF-DA at 37° C. then treated with 30 μM capsazepine using phenol free media with and without 10 mM NAC. Treated cells were incubated for 1 h at 37° C., harvested, washed twice, and analyzed by FACS."}, "[3]": {"system": "OSCC cell lines (HSC3, SCC4, and SCC25)", "assay": "Apoptosis studies, microscopic analysis of OSCC cells", "format": "cell-based, human", "conditions": "CPZ 30, 60 or 90 μM, 24 hrs", "method": "FIGS. 1E-1, 1E-2, and 1E-3. […] In FIG. 1E-1, magnifications of (from left to right) vehicle control HSC3 cells (a) and HSC3 cells treated with 30 μM CPZ (b), 60 μM CP(c), or 90 μM CPZ(d). In FIG. 1E-2, magnifications of (from left to right) vehicle control SCC4 cells (a) and SCC4 cells treated with 30 μM CPZ (b), 60 μM CPZ (c), 90 μM CPZ (d), while, in FIG. 1E-3, magnifications of (from left to right) vehicle control SCC25 cells (a) and SCC25 cells treated with 30 μM CPZ (b), 60 μM CPZ (c), or 90 μM CPZ (d).\nTo determine if reduced cell viability was due to apoptosis, flow-sort analysis and microscopic analysis of cells in three OSCC cell lines (HSC3, SCC4, and SCC25) following treatment were performed. […] (Compare FIGS. 1E-1(b) to (d), FIGS. 1E-2(b)-(d), and FIGS. 1E-3(b) to (d) with FIG. 1E-1(a), FIG. 1E-2(a), and FIG. 1E-3(a), respectively.)"}, "[4]": {"system": "SCC4 xenografts", "assay": "OSCC mouse xenograft model, SCC4", "format": "in vivo, athymic nude (nu/nu) mice", "excerpt": "Animals. Six week-old female athymic nude (nu/nu) mice were purchased from HARLAN Laboratories (Indianapolis, Ind.) and used in a laminar air-flow cabinet under pathogen-free conditions. They were provided with a 12-h light/dark schedule at controlled temperature and humidity with food and water ad libitum. Mice were allowed to acclimate for at least one week prior to the start of the experiments. All procedures were approved by the UTHSCSA (University of Texas Health Science Center—San Antonio) Institutional Animal Care and Use Committee.\nOSCC Mouse Xenograft Model. Mice were injected subcutaneously in the right flank with 2×10^6 HSC3, SCC4, or SCC25 cells in 0.1 ml of sterile phosphate buffered saline (each of these cell lines is published in scientific literature). Four weeks post-inoculation, tumors had grown to an average volume of 110 mm^3. Mice were then divided into two experimental groups of five animals each, which received the following treatments as intra-tumoral injections: group A, vehicle control (7% DMSO in sterile saline); group B, CPZ treatment (40 μg). The injections were repeated every other day and for a total of at least 14 days.\nTreatments. CPZ (5 mg) was diluted in 250 μl of 100% DMSO to yield a final concentration of 20 μg/μl of stock solution. Stock solution (100 m) was subsequently diluted in 7% DMSO in sterile saline generating a final concentration of 1 μg/μl. […] Control xenografts were injected intra-tumorally with 40 μl of vehicle control (7% DMSO). Mice were monitored daily for tumor growth, cachexia, and weight loss. Tumor volumes and body weight were recorded every other day. Tumor volumes were calculated by the formula: (4π/3)×(w/2)2×(l/2), where w=width and l=length. Measurements were made using a digital caliper. At the conclusion of the experiments, mice were anaesthetized with isoflurane and cervical dislocation, blood was collected, and the serum was separated and stored at −80° C. until assayed. Biochemical analysis of serum was performed by the Mouse Metabolic Phenotyping Center (Yale School of Medicine, New Haven, Conn.). […]"}, "[5]": {"assay": "Tolerability observations in tumor bearing mice treated intratumorally", "format": "in vivo", "method": "Treatments. CPZ (5 mg) was diluted in 250 μl of 100% DMSO to yield a final concentration of 20 μg/μl of stock solution. Stock solution (100 m) was subsequently diluted in 7% DMSO in sterile saline generating a final concentration of 1 μg/μl. A total of 40 μg in 40 μl was injected intra-tumorally. Control xenografts were injected intra-tumorally with 40 μl of vehicle control (7% DMSO). Mice were monitored daily for tumor growth, cachexia, and weight loss. Tumor volumes and body weight were recorded every other day. Tumor volumes were calculated by the formula: (4π/3)×(w/2)2×(l/2), where w=width and l=length. Measurements were made using a digital caliper. At the conclusion of the experiments, mice were anaesthetized with isoflurane and cervical dislocation, blood was collected, and the serum was separated and stored at −80° C. until assayed. Biochemical analysis of serum was performed by the Mouse Metabolic Phenotyping Center (Yale School of Medicine, New Haven, Conn.). Tumors were dissected and placed in 10% neutral buffered formalin (SIGMA, St. Louis, Mo.) and processed for histological analysis."}, "[6]": {"system": "voltage-activated calcium channels", "conditions": "cited from earlier work"}, "[7]": {"system": "CFA-induced mechanical hyperalgesia", "conditions": "guinea pigs; cited from earlier work"}},
  "data": [
    {"smiles": "Oc1cc2c(cc1O)CN(C(=S)NCCc1ccc(Cl)cc1)CCC2", "note": "[CPZ, 2-[2-(4-chlorphenyl)ethylamino-thiocarbonyl]-7,8-dihydroxy-2,3,4,5-tetrahydro-1H-2-benzazepine]", "values": [
      {"measurement": "reduction in cell proliferation", "setting": "[1]", "value": 40, "unit": "%"},
      {"measurement": "level of ROS", "setting": "[2]", "value": "increase in ROS"},
      {"measurement": "apoptosis", "setting": "[3]", "value": "undergo apoptosis"},
      {"measurement": "tumor growth rate", "setting": "[4]; 40 μg CPZ intra-tumoral every other day, two weeks, p<0.05", "value": "significant reduction in tumor growth rate"},
      {"measurement": "growth of vehicle-control-treated tumors versus CPZ treated", "setting": "[4]; 40 μg CPZ, day sixteen, p<0.01", "value": "two-fold greater"},
      {"measurement": "difference in tumor growth rates between vehicle control and treated mice", "setting": "[4]; 60 μg CPZ, repeat experiments (data not shown)", "value": 3, "unit": "fold"},
      {"measurement": "body weight", "setting": "[5]; approximately two-week intra-tumoral CPZ treatment", "value": "did not lose weight"},
      {"measurement": "adjacent healthy tissues", "setting": "[5]; intratumoral injection with CPZ", "value": "No inflammation, ulceration, necrosis or pain were evident"},
      {"measurement": "effect on voltage-activated calcium channels", "setting": "[6]", "value": "Inhibitis"},
      {"measurement": "CFA-induced mechanical hyperalgesia", "setting": "[7]", "value": "Significantly reversed"}
    ]}
  ]
}
